For one compound, IC50 results are on record in PMC3675114, “Structural Basis and Selectivity of Tankyrase Inhibition by a Wnt Signaling Inhibitor WIKI4” (PLoS ONE, 2013).

The assay has as its target T1, Tankyrase 1 (TNKS1) (Homo sapiens, UniProt O95271).
T1 construct: gene TNKS
Kind of assay: fluorescence-based homogeneous NAD+ consumption activity assay. The class given is biochemical.

T1 sequence (O95271 whole entry): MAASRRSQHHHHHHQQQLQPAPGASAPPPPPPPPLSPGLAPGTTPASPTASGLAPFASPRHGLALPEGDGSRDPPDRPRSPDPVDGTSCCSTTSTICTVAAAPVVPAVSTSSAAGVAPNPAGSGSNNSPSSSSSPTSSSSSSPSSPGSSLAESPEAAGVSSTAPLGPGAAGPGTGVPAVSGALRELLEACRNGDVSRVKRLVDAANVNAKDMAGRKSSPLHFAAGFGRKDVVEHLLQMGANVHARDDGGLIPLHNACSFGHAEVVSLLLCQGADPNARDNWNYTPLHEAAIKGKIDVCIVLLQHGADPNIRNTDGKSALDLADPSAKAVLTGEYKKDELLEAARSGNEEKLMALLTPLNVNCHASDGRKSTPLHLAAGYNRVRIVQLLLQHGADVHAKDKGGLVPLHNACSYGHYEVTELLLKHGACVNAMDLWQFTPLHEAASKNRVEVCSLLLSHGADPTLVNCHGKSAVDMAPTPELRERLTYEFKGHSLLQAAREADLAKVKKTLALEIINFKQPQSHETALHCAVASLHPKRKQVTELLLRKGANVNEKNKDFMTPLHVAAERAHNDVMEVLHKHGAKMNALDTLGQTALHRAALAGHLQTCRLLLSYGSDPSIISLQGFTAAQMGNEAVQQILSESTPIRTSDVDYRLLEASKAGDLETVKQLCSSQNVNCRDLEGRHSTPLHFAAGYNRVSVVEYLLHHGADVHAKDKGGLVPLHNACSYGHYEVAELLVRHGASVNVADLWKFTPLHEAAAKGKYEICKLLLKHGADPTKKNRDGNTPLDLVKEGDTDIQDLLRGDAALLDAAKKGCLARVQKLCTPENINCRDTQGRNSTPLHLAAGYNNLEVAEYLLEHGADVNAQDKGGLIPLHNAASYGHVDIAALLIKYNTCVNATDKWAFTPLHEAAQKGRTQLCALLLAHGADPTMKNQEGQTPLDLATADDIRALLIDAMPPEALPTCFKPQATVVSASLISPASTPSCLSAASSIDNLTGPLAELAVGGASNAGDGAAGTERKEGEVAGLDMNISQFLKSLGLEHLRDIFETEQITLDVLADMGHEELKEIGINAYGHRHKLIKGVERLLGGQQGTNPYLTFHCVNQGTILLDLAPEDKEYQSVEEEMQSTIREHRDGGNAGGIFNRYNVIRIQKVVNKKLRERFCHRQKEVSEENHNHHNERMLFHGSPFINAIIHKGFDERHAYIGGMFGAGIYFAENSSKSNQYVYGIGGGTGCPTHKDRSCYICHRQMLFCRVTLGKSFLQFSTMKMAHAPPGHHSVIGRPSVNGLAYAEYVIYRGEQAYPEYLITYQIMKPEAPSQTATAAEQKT

With `COc1ccc(-n2c(SCCCN3C(=O)c4cccc5cccc(c45)C3=O)nnc2-c2ccncc2)cc1` [WIKI4], half-maximal inhibition (IC50) was put at 26 nM.
